Reference: patent US20240390503A1, “Green Tea-based Nanocomplexes for Eye Disease” (Agency for Science, Technology and Research, priority 2021, published 2024)
Entries after “also recorded” stand apart in the source; their conditions may differ. Where two headings read alike, the source gives them in different places.

How the values were obtained:
[1] = tested on: Vldlr^−/− mice; assay: In vivo anti-angiogenesis effect on Vldlr−/− mice (relative number of retinal lesions, fluorescein angiography)
[2] = tested on: Human umbilical vein endothelial cells (HUVECs); assay: Inhibitory effects on VEGF-activated endothelial cell proliferation (AlamarBlue); type: cell-based; settings: HUVEC, 3 days, read-out: IC50, anti-proliferative effect
Method: Human umbilical vein endothelial cells (HUVECs) were obtained from Lonza Biologics Tuas Pte Ltd (Singapore), and cultured in the endothelial cell basal medium (EBM-2) supplemented with EGM-2 SingleQuots (Lonza Biologics Tuas Pte Ltd, Singapore). HUVECs were seeded in 96-well plates (5×10^3 cells/well, n=5) and cultured for one day for cell attachment.
After 3 days, the cell viability was measured by using AlamarBlue® reagent (Life Technologies, USA) according to the manufacturer's protocol. Briefly, the medium was replaced by phenol red-free media containing 10% AlamarBlue® reagent. After incubation for 4 hours at 37° C., fluorescence intensity (λex=549 nm and λem=587 nm) was measured by a microplate reader (Tecan Group Ltd., Switzerland). Results were expressed as a percentage of viable cells relative to untreated cells.
The CI values of HA-EGCG and drug combination were calculated with the following equation using the CompuSyn software: […]

[3] = tested on: AMD patients; settings: oral, cited from earlier work
[4] = tested on: AMD patients; settings: cited from earlier work

Aflibercept
CNV inhibitory effect ([1]; IVT, 2.0 μg/0.5 μL, 1× at day 0): observed only in the early stages of treatment and diminished over time; also recorded: effective only in the first 7 days | retinal lesion development ([1]; topical, AF 0.2 mg/mL or equivalent HA-EGCG/chitosan, 10 μL, 3×/day, 31 days): failed to suppress the lesion progression | IC50 ([2]; VEGF-activated conditions): > 0.21 µM

CCN(CC)CCNC(=O)c1c(C)[nH]c(/C=C2\C(=O)Nc3ccc(F)cc32)c1C [SU, Sunitinib malate]
progression of retinal lesions ([1]; topical, SU 0.50 mg/mL, 10 μL, 3×/day, 28 days): no efficacy | IC50 ([2]; Homo sapiens, 72 h, VEGF-activated conditions): 4.32 µM | IC50 ([2]; Homo sapiens, 72 h, normal growth conditions): 6.59 µM

Cc1[nH]c(/C=C2\C(=O)Nc3ccc(F)cc32)c(C)c1C(=O)N[C@H]1CCN(C(=O)N(C)C)C1 [Vorolanib]
AMD patients with improved visual acuity ([3]; phase 1, completed 24 weeks treatment): 24 out of 25 | participants who discontinued due to severe systemic adverse effects ([3]; phase 1): 17% | visual acuity compared to placebo ([3]; phase 2, at 52 weeks): did not improve visual acuity

Ranibizumab
AMD patients with improved visual acuity ([4]; monthly IVT injection, 0.5 mg): 33.8% | incidence of increased intraocular pressure ([4]; two year treatment): 24% | incidence of intraocular inflammation ([4]; two year treatment): 18%
